Test results published in US20250115828A1, “INACTIVATING AGENT FOR ENVELOPED VIRUSES” (priority 2022, published 2025).
Like-named read-outs stand apart in the source and are kept apart here.

Columns and labels:
[1] = system: Influenza A virus (H1N1, A/PR/8/34) ATCC VR-1469; experiment: Anti-influenza virus verification test (focus assay on MDCK cells); assay type: cell-based; details: for Evaluation result (Δ LOG (FFU/mL) class) / Minimum inactivation concentration: Influenza virus; for Minimum inactivation concentration: minimum concentration at which Δ LOG (FFU/mL) is 3 or more; for inactivation effect in the presence of hardness components (in words): Table 5: influenza virus, 4 °DH, contact 10 min
[2] = system: Betacoronavirus 1 (OC43) ATCC VR-1558; experiment: Anti-human coronavirus verification test (TCID50 on HCT-8 cells); assay type: cell-based
[3] = system: Pseudomonas syringae phage ϕ6 (NBRC 105899); experiment: Anti-bacteriophage ϕ6 verification test (plaque assay); assay type: cell-based; details: Bacteriophage Φ6; hardness of water 0 °DH; contact time 10 min; minimum concentration at which Δ LOG (PFU/mL) is 3 or more
[4] = Critical micelle concentration at 25° C. by pyrene fluorescence intensity ratio I1/I3; assay type: physicochemical; details: ion exchange water
Procedure: A critical micelle concentration of component (a) or (a′) at 25° C. was measured by the method below.
A 1×10^−3 mol/L ethanol solution of pyrene (FUJIFILM Wako Pure Chemical Corporation) was prepared in a brown screw cap tube, and 5 μl of the solution was placed in a screw cap tube (No. 3) and dried with dry air. 5 mL of an aqueous solution of component (a) or (a′) to be measured (prepared with ion exchange water) was added thereto and processed with an ultrasonic cleaner for 15 minutes, and using this, fluorescence spectrum measurements were performed with a fluorescence spectrophotometer (Fluorescence Spectrophotometer F-7000 (manufactured by Hitachi High-Tech Corporation)). Fluorescence intensities I1 and I3 at wavelengths λ1 of 373 nm and λ3 of 384 nm were measured under the measurement conditions below to calculate fluorescence intensity ratio I1/I3.
A graph was prepared on which the horizontal axis plots a concentration of component (a) or (a′) and the vertical axis plots a fluorescence intensity ratio I1/I3, at each concentration, and a surfactant concentration at the midpoint between the maximum value and the minimum value of I1/I3 was taken as the critical micelle concentration.
Excitation wavelength: 339 nm, slit on the excitation side: […], slit on the fluorescence side: […], scanning rate: 60 nm/min, liquid temperature: 25° C., measurement range: 350 to 400 nm

[5] = Krafft point measurement with rhodamine 6G; assay type: physicochemical; details: 0.2 mass % in ion exchange water
Procedure: A krafft point of component (a) or (a′) was measured by the method below.
A solution obtained by diluting component (a) or (a′) with ion exchange water to attain a total amount of 5 mL and a concentration of 0.2 mass % was prepared and placed in a glass test tube, and the fluorescent dye rhodamine 6G (FUJIFILM Wako Pure Chemical Corporation) was then added to attain a final concentration of 0.02 mM. After the test tube was placed in an ice bath to condition a temperature at 5° C., the temperature was raised at a temperature rise rate of 0.5° C./min, and a temperature at which the solution emitted fluorescence was taken as the krafft point. Component (a) or (a′) which had emitted fluorescence at 5° C. was considered to have a krafft point of less than 5° C.

[6] = 100 ppm, hardness of water 0 °DH, contact time 0.5 min
[7] = 100 ppm, hardness of water 0 °DH, contact time 1 min
[8] = 100 ppm, hardness of water 0 °DH, contact time 5 min
[9] = 100 ppm, hardness of water 0 °DH, contact time 10 min
[10] = hardness of water 0 °DH, contact time 10 min
[11] = Human coronavirus, hardness of water 0 °DH, contact time 10 min, […]
[12] = 500 ppm, hardness of water 4 °DH, contact time 10 min

| Molecule | Evaluation result (Δ LOG (FFU/mL) class) [1, 6] | Evaluation result (Δ LOG (FFU/mL) class) [1, 7] | Evaluation result (Δ LOG (FFU/mL) class) [1, 8] | Evaluation result (Δ LOG (FFU/mL) class) [1, 9] | Minimum inactivation concentration [1, 10] [ppm] | Minimum inactivation concentration [2] [ppm] | Minimum inactivation concentration [3] [ppm] | critical micelle concentration (25° C.) [4] [mol/L] | Minimum inactivation concentration [2, 11] | krafft point [5] [°C] | Evaluation result (Δ LOG (FFU/mL) class) [1, 12] | inactivation effect in the presence of hardness components (in words) ([1]; 500 ppm) | inactivation effects on the enveloped virus by short-time contact (in words) ([1]; Table 4: influenza virus, 100 ppm, 0 °DH, contact 0.5 to 10 min, compared to comparative examples 5 and 6) |
| --- | --- | --- | --- | --- | --- | --- | --- | --- | --- | --- | --- | --- | --- |
| CCCCC(CC)COC(=O)CC(C(=O)OCC(CC)CCCC)S(=O)(=O)[O-].[Na+] (stereo not shown) [(a′-1), sodium di(2-ethylhexyl)sulfosuccinate] | 1 (a Δ LOG (FFU/mL) of the infectious titers of less than 1) | 1 (a Δ LOG (FFU/mL) of the infectious titers of less than 1) | 1 (a Δ LOG (FFU/mL) of the infectious titers of less than 1) | 2 (a Δ LOG (FFU/mL) of 1 or more and less than 2) | 250 | >250 | 250 | 0.0028 |  |  |  |  |  |
| CCCCCCCCCCCCCCCCOS(=O)(=O)[O-].[Na+] [(a′-3), sodium alkyl sulfate with 16 carbons] |  |  |  |  | >500 |  | >500 | 0.00045 | >>2000 ppm | 40 |  |  |  |
| CCCCCCCCCCCCOS(=O)(=O)[O-].[Na+] [(a′-4), sodium alkyl sulfate with 12 carbons] |  |  |  |  | >500 |  | >500 | 0.0082 | >2000 ppm |  |  |  |  |
| CCCCCCCC/C=C\CCCCCCCC(=O)[O-].[K+] [(a′-5), potassium oleate] |  |  |  |  |  |  |  | 0.0015 |  |  | 1 (a Δ LOG (FFU/mL) of the infectious titers of less than 1) | insufficient inactivation effect |  |
| sodium di(2-propylheptyl)sulfosuccinate [(a-1)] | 4 (a Δ LOG (FFU/mL) of 3 or more) | 4 (a Δ LOG (FFU/mL) of 3 or more) | 4 (a Δ LOG (FFU/mL) of 3 or more) | 4 (a Δ LOG (FFU/mL) of 3 or more) | 50 |  | 10 | 0.00035 | 100 ppm |  | 4 (a Δ LOG (FFU/mL) of 3 or more) | high inactivation effects | high inactivation effects |
